Paper PMC13242511, “Disrupting Notch signalling by a small molecule inhibiting dihydroorotate dehydrogenase activity” (Scientific Reports, 2026)

Legend:
Assay type in all cases: cell-based
Notch signalling [1] = experiment: Notch reporter assay (12xCSL firefly luciferase / renilla luciferase, HEK293T Notch1ΔE reporter cell line clone #A1-11); design: Confirmation screen: unit not given here; conditions: for inhibitor ratio in % of DMSO in 3 point DR: 3-point DR confirmation screen, Notch reporter assay
Outline: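 Compounds at two-fold concentration in 10 µl medium were brought to one-fold by adding 10 µl holding 4000 Notch reporter cells (clone #A1-11) per well of a 384-well plate. After 24 h, Promega dual-GLO firefly and renilla luciferase were read on a SpectraMaxi3. Dose-response curves were fitted with a log(inhibitor) vs. response variable-slope model.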

γ-secretase complex = γ-secretase complex (Homo sapiens, UniProt P49768); experiment: APP-C99 counter assay (GSI reporter assay); conditions: for 3p-DR in % of DMSO counter: APP-C99 counter assay
Outline: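 Cells transfected with APP-C99 firefly luciferase reporter plus renilla normalization plasmid, seeded 24 h later onto compound plates and cultured 24 h. Dual luciferase read in triplicate per concentration; IC50 from variable-slope log(inhibitor) fit, with AUC also calculated from dose–response curves.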

[2] = system: T-ALL and breast cancer cell lines; experiment: Growth inhibition in tumour cell lines (panel, cell lines not named singly); conditions: overview in comparison to compound C; Supplemental Fig. 9
Text: We next investigated whether compounds A-E affected growth and viability of cell lines from T-cell acute lymphoblastic leukaemia (T-ALL) and breast cancer, two tumour types in which elevated Notch signalling has been implicated in tumorigenesis. […] When testing analogues of compounds B and C, five of the seven B analogues and one of the two C analogues produced dose–response curves and IC50s, which however were higher compared to the original hits (Supplemental Fig. 5A; IC50s are presented in Supplemental Table 6).
Compounds were spotted on white 384-well tissue culture plates (Greiner, cat #781080) using an Echo 525 Acoustic liquid handler (Labcyte). Cells were grown to 80% confluence, detached if required, counted and 20 µl containing 2000–4000 cells per well was then seeded in each well and cultivated for three (4,000 cells seeded) and six days (2,000 cells seeded). […] Luciferase activity (reading out metabolic activity) was determined using the CellTiter-Glo 2.0 kit (CTG, Promega, cat #G9242) following the manufacturer’s instructions and luminescence was measured on a SpectraMaxi3 or Varioscan plate reader (Molecular Devices, Thermofisher).

Notch signalling [3] = experiment: Notch reporter assay (12xCSL firefly luciferase / renilla luciferase, HEK293T Notch1ΔE reporter cell line clone #A1-11); conditions: 24 h, unit from Fig. 2 legend
[4] = overview in comparison to compound C, Supplemental Fig. 9
[5] = 10 µM, sheet conf vs counter 10 µM, same values as 3-point DR confirmation screen
[6] = 25 µM, Notch reporter 3-point dose-confirmation assay, sheet "conf vs counter 25 µM"
[7] = 10 µM, sheet conf vs counter 10 µM
[8] = 25 µM, sheet "conf vs counter 25 µM", same values given as % of DMSO in sheet "3p-DR in % of DMSO counter"

Compound	IC50 (Notch signalling [1]; expanded dose range 500 nM-25 pM, Fig. 7E, read-out: IC50, Notch reporter activity)	Notch assay (Notch signalling [1]; [4])	APP assay (γ-secretase complex; [4])	viability assay [2]	inhibitor ratio in % of DMSO in 3 point DR (Notch signalling [1]; 10µM)	Confirmation screen (Notch signalling [1]; [5])	inhibitor ratio in % of DMSO in 3 point DR (Notch signalling [1]; 25µM)	Confirmation screen (Notch signalling [1]; [6])	inhibitor ratio in % of DMSO in 3 point DR (Notch signalling [1]; 1,25µM)	3p-DR in % of DMSO counter (γ-secretase complex; 10µM)	Counter screen (Hek APP-C99) (γ-secretase complex; [7])	3p-DR in % of DMSO counter (γ-secretase complex; 25µM)	Counter screen (Hek APP-C99) (γ-secretase complex; [8])	3p-DR in % of DMSO counter (γ-secretase complex; 1,25µM)	Primary screen at 10 µM (Notch reporter signal) (Notch signalling [3])
BAY2402234 [reference compound]	11 nM	higher potency	higher potency	reduced											
Nc1ccc(Sc2nccnc2N2CCCC2)cc1 [CBK089520]					42.1 % of DMSO	42.1	27.1 % of DMSO	27.1	103.0 % of DMSO	34.9 % of DMSO	34.9	11.6 % of DMSO	11.6	115.4 % of DMSO	43.1 % of DMSO
NC(=O)c1c(NC(=S)NC(NC(=O)c2ccccc2)C(Cl)(Cl)Cl)sc2c1CCCC2 (stereo not drawn) [CBK261048]					66.7 % of DMSO	66.7	49.9 % of DMSO	49.9	102.1 % of DMSO	72.6 % of DMSO	72.6	66.8 % of DMSO	66.8	111.1 % of DMSO	67.0 % of DMSO
COc1cccc(OCC2CCCN(C(=O)CCc3cnn(C)c3)C2)c1 (stereo not drawn) [CBK306931]					57.0 % of DMSO	57.0	34.9 % of DMSO	34.9	63.9 % of DMSO	59.0 % of DMSO	59.0	46.1 % of DMSO	46.1	61.2 % of DMSO	46.7 % of DMSO
Fc1cc(CN2CCC3(CC2)OCCc2c3[nH]c3ccc(Br)cc23)cc(F)c1F [CBK039943]					83.6 % of DMSO	83.6	75.1 % of DMSO	75.1	111.8 % of DMSO	118.1 % of DMSO	118.1	117.4 % of DMSO	117.4	92.8 % of DMSO	63.6 % of DMSO
COc1ccc(N(CC(O)CN2CCOCC2)S(=O)(=O)c2ccccc2)cc1 (stereo not drawn) [CBK263589]					96.3 % of DMSO	96.3	100.1 % of DMSO	100.1	103.6 % of DMSO	81.1 % of DMSO	81.1	76.7 % of DMSO	76.7	74.5 % of DMSO	69.0 % of DMSO
O=C(NC(Nc1cccc(C(F)(F)F)c1)C(=O)c1ccccc1)c1ccc(Cl)cc1 (stereo not drawn) [CBK263585]					59.9 % of DMSO	59.9	46.6 % of DMSO	46.6	104.0 % of DMSO	79.4 % of DMSO	79.4	84.5 % of DMSO	84.5	97.7 % of DMSO	61.4 % of DMSO
C[C@@H]1C(=O)O[C@H]2[C@H]1CC[C@@]1(C)Cc3sc(NC(=O)CN(C)C)nc3[C@@H](C)[C@H]21 [CBK289431]					39.6 % of DMSO	39.6	35.0 % of DMSO	35.0	40.7 % of DMSO	58.4 % of DMSO	58.4	61.0 % of DMSO	61.0	71.4 % of DMSO	41.2 % of DMSO
